{
  "source": "paper PMC5218480",
  "about": "(PLoS ONE, 2017)",
  "system": "MV-4-11 cells",
  "experiment": "Gene expression microarray analysis (Affymetrix PrimeView) and GSEA",
  "type": "cell-based, human",
  "design": "RFU PODN (11730768_x_at) / Fold change /veh PODN (11730768_x_at) / RFU LINC00158 (11744669_a_at) / Fold change /veh LINC00158 (11744669_a_at) / RFU DUSP10 (11751237_a_at) / Fold change /veh DUSP10 (11751237_a_at) / RFU ID3 (11757404_x_at) / Fold change /veh ID3 (11757404_x_at) / RFU PLEKHG5 (11737974_s_at) / Fold change /veh PLEKHG5 (11737974_s_at) / RFU LRRC4B (11730491_at) / Fold change /veh LRRC4B (11730491_at) / RFU GIMAP4 (11747438_a_at) / Fold change /veh GIMAP4 (11747438_a_at) / RFU KRT8 (11758183_x_at) / Fold change /veh KRT8 (11758183_x_at) / RFU CNN1 (11734310_a_at) / Fold change /veh CNN1 (11734310_a_at) / RFU VPS37D (11726825_at) / Fold change /veh VPS37D (11726825_at) / RFU C10orf10 (11716522_x_at) / Fold change /veh C10orf10 (11716522_x_at) / RFU KIR2DL2 /// KIR2DL4 /// KIR2DL5A /// KIR2DL5B /// KIR2DS1 /// KIR2DS2 /// KIR2DS3 /// KIR2DS4 /// KIR3DL3 /// KIR3DL3 /// KIR3DS1 (11738374_at) / Fold change /veh KIR2DL2 /// KIR2DL4 /// KIR2DL5A /// KIR2DL5B /// KIR2DS1 /// KIR2DS2 /// KIR2DS3 /// KIR2DS4 /// KIR3DL3 /// KIR3DL3 /// KIR3DS1 (11738374_at) / RFU C1QL1 (11718748_at) / Fold change /veh C1QL1 (11718748_at) / RFU TMPRSS4 (11747572_a_at) / Fold change /veh TMPRSS4 (11747572_a_at) / RFU HAMP (11756126_x_at) / Fold change /veh HAMP (11756126_x_at) / RFU RNFT2 (11725882_a_at) / Fold change /veh RNFT2 (11725882_a_at) / RFU NR4A2 (11747474_a_at) / Fold change /veh NR4A2 (11747474_a_at) / RFU ABCC12 (11746883_a_at) / Fold change /veh ABCC12 (11746883_a_at) / RFU TMEM136 (11760407_x_at) / Fold change /veh TMEM136 (11760407_x_at) / RFU CLDN22 /// WWC2 (11732394_at) / Fold change /veh CLDN22 /// WWC2 (11732394_at) / RFU HLA-DPB1 (11760878_x_at) / Fold change /veh HLA-DPB1 (11760878_x_at) / RFU SPINT1 (11716480_a_at) / Fold change /veh SPINT1 (11716480_a_at) / RFU GAP43 (11754022_s_at) / Fold change /veh GAP43 (11754022_s_at) / RFU A4GNT (11735810_at) / Fold change /veh A4GNT (11735810_at) / RFU PRB3 (11715151_x_at) / Fold change /veh PRB3 (11715151_x_at) / RFU TUBB4B (11761932_at) / Fold change /veh TUBB4B (11761932_at) / RFU CAPN14 (11732068_a_at) / Fold change /veh CAPN14 (11732068_a_at) / RFU TMCC2 (11721928_a_at) / Fold change /veh TMCC2 (11721928_a_at) / RFU IRGQ (11745062_a_at) / Fold change /veh IRGQ (11745062_a_at) / RFU FAM174B (11720279_a_at) / Fold change /veh FAM174B (11720279_a_at) / RFU TMPRSS4 (11748680_a_at) / Fold change /veh TMPRSS4 (11748680_a_at) / RFU FAM212B (11763350_a_at) / Fold change /veh FAM212B (11763350_a_at) / RFU PLEKHG5 (11743358_a_at) / Fold change /veh PLEKHG5 (11743358_a_at) / RFU ZSCAN30 (11745921_a_at) / Fold change /veh ZSCAN30 (11745921_a_at) / RFU CMKLR1 (11741424_a_at) / Fold change /veh CMKLR1 (11741424_a_at) / RFU LOC101060620 /// MAPK8IP1 (11723275_at) / Fold change /veh LOC101060620 /// MAPK8IP1 (11723275_at) / RFU SPTSSB (11747773_x_at) / Fold change /veh SPTSSB (11747773_x_at) / RFU PRSS12 (11739890_at) / Fold change /veh PRSS12 (11739890_at) / RFU BIN1 (11741810_x_at) / Fold change /veh BIN1 (11741810_x_at) / RFU WNT11 (11732464_a_at) / Fold change /veh WNT11 (11732464_a_at) / RFU C10orf10 (11716521_a_at) / Fold change /veh C10orf10 (11716521_a_at) / RFU C5orf56 (11738089_at) / Fold change /veh C5orf56 (11738089_at) / RFU CYB561 (11721691_x_at) / Fold change /veh CYB561 (11721691_x_at) / RFU ANKRD19P (11752326_a_at) / Fold change /veh ANKRD19P (11752326_a_at) / RFU OR2T12 /// OR2T33 /// OR2T8 (11738714_s_at) / Fold change /veh OR2T12 /// OR2T33 /// OR2T8 (11738714_s_at) / RFU VCAN (11748164_a_at) / Fold change /veh VCAN (11748164_a_at) / RFU JSRP1 (11732532_at) / Fold change /veh JSRP1 (11732532_at) / RFU KRTAP10-11 (11738290_x_at) / Fold change /veh KRTAP10-11 (11738290_x_at) / RFU MYO3A (11730013_a_at) / Fold change /veh MYO3A (11730013_a_at) / RFU EBF3 (11725865_a_at) / Fold change /veh EBF3 (11725865_a_at) / RFU CAMK2N1 (11719241_x_at) / Fold change /veh CAMK2N1 (11719241_x_at) / RFU C5orf56 (11738088_a_at) / Fold change /veh C5orf56 (11738088_a_at) / RFU OLFML3 (11715873_a_at) / Fold change /veh OLFML3 (11715873_a_at) / RFU LOC100653217 /// NTM (11731650_a_at) / Fold change /veh LOC100653217 /// NTM (11731650_a_at) / RFU MAPK11 (11762145_a_at) / Fold change /veh MAPK11 (11762145_a_at) / RFU FIZ1 (11724087_x_at) / Fold change /veh FIZ1 (11724087_x_at) / RFU OASL (11726364_x_at) / Fold change /veh OASL (11726364_x_at) / RFU SOX15 (11748057_x_at) / Fold change /veh SOX15 (11748057_x_at) / RFU CD79A (11719716_a_at) / Fold change /veh CD79A (11719716_a_at) / RFU HIST1H1D (11736915_at) / Fold change /veh HIST1H1D (11736915_at) / RFU CASKIN2 (11723855_a_at) / Fold change /veh CASKIN2 (11723855_a_at) / RFU LOC730098 (11760151_x_at) / Fold change /veh LOC730098 (11760151_x_at) / RFU OR4N2 (11742367_at) / Fold change /veh OR4N2 (11742367_at) / RFU PRRT2 (11749266_a_at) / Fold change /veh PRRT2 (11749266_a_at) / RFU SNX32 (11753110_a_at) / Fold change /veh SNX32 (11753110_a_at) / RFU CDHR5 (11726645_a_at) / Fold change /veh CDHR5 (11726645_a_at) / RFU RCAN1 (11760418_a_at) / Fold change /veh RCAN1 (11760418_a_at) / RFU FAM167A (11723789_a_at) / Fold change /veh FAM167A (11723789_a_at) / RFU FAM26E (11764081_at) / Fold change /veh FAM26E (11764081_at) / RFU ISYNA1 (11749810_s_at) / Fold change /veh ISYNA1 (11749810_s_at) / RFU ACY1 (11761880_at) / Fold change /veh ACY1 (11761880_at) / RFU 11764098_at / Fold change /veh 11764098_at / RFU SAMD14 (11745864_x_at) / Fold change /veh SAMD14 (11745864_x_at) / RFU NPB (11741838_a_at) / Fold change /veh NPB (11741838_a_at) / RFU TMPRSS6 (11731388_a_at) / Fold change /veh TMPRSS6 (11731388_a_at) / RFU KRTAP10-2 (11738614_at) / Fold change /veh KRTAP10-2 (11738614_at) / RFU ARHGAP8 /// PRR5-ARHGAP8 (11727945_x_at) / Fold change /veh ARHGAP8 /// PRR5-ARHGAP8 (11727945_x_at) / RFU KRTAP5-7 /// NADSYN1 (11734609_at) / Fold change /veh KRTAP5-7 /// NADSYN1 (11734609_at) / RFU RASL12 (11751679_a_at) / Fold change /veh RASL12 (11751679_a_at) / RFU CDKN2B (11736163_a_at) / Fold change /veh CDKN2B (11736163_a_at) / RFU PRF1 (11729649_at) / Fold change /veh PRF1 (11729649_at) / RFU, ZNF638 /// ZNF638-IT1 / Fold change vs veh, ZNF638 /// ZNF638-IT1 / RFU, PANK3 / Fold change vs veh, PANK3 / RFU, SH3YL1 / Fold change vs veh, SH3YL1 / RFU, ZEB2 / Fold change vs veh, ZEB2 / RFU, NRIP1 / Fold change vs veh, NRIP1 / RFU, PTTG1IP / Fold change vs veh, PTTG1IP / RFU, CAPN2 / Fold change vs veh, CAPN2 / RFU, MED14 / Fold change vs veh, MED14 / RFU, SNORA58 / Fold change vs veh, SNORA58 / RFU, C1orf63 / Fold change vs veh, C1orf63 / RFU, LRRFIP1 / Fold change vs veh, LRRFIP1 / RFU, NDUFAF7 / Fold change vs veh, NDUFAF7 / RFU, SLC12A2 / Fold change vs veh, SLC12A2 / RFU, IBTK / Fold change vs veh, IBTK / RFU, ESF1 / Fold change vs veh, ESF1 / Fold change vs veh, TMEM50B / RFU, TAOK1 / Fold change vs veh, TAOK1 / RFU, ACBD3 / Fold change vs veh, ACBD3 / RFU, TMA16 / Fold change vs veh, TMA16 / RFU, RWDD3 / Fold change vs veh, RWDD3 / RFU, BCAT1 / Fold change vs veh, BCAT1 / RFU, EDEM3 / Fold change vs veh, EDEM3 / RFU, TMEM33 / Fold change vs veh, TMEM33 / RFU, WDR75 / Fold change vs veh, WDR75 / RFU, AHCTF1 / Fold change vs veh, AHCTF1 / RFU, TFRC / Fold change vs veh, TFRC / RFU, ZDHHC17 / Fold change vs veh, ZDHHC17 / RFU, NOM1 / Fold change vs veh, NOM1 / RFU, ARL8B / Fold change vs veh, ARL8B / RFU, ZBTB11 / Fold change vs veh, ZBTB11 / RFU, TAMM41 / Fold change vs veh, TAMM41 / RFU, KIAA1704 /// LOC100996395 / Fold change vs veh, KIAA1704 /// LOC100996395 / RFU, ING1 / Fold change vs veh, ING1 / RFU, TRMT61B / Fold change vs veh, TRMT61B / RFU, FUBP3 / Fold change vs veh, FUBP3 / RFU, TP53 / Fold change vs veh, TP53 / RFU, TNKS2 / Fold change vs veh, TNKS2 / RFU, ZFP14 / Fold change vs veh, ZFP14 / RFU, ACTR2 / Fold change vs veh, ACTR2 / RFU, PPP3R1 / Fold change vs veh, PPP3R1 / RFU, PIK3R1 / Fold change vs veh, PIK3R1 / RFU, HNRNPA1 / Fold change vs veh, HNRNPA1 / RFU, RNF170 / Fold change vs veh, RNF170 / RFU, ZNF28 / Fold change vs veh, ZNF28 / RFU, RNGTT / Fold change vs veh, RNGTT / RFU, OGT / Fold change vs veh, OGT / RFU, BRD1 / Fold change vs veh, BRD1 / RFU, MARS / Fold change vs veh, MARS / RFU, ZNF655 / Fold change vs veh, ZNF655 / RFU, FAHD1 / Fold change vs veh, FAHD1 / RFU, BDP1 / Fold change vs veh, BDP1 / RFU, LRRCC1 / Fold change vs veh, LRRCC1 / RFU, ARID1A / Fold change vs veh, ARID1A / RFU, ZNF146 / Fold change vs veh, ZNF146 / RFU, ZNF330 / Fold change vs veh, ZNF330 / RFU, GPN3 / Fold change vs veh, GPN3 / RFU, C9orf123 / Fold change vs veh, C9orf123 / RFU, N4BP2L2 / Fold change vs veh, N4BP2L2 / RFU, ARFIP1 / Fold change vs veh, ARFIP1 / RFU, FAM179B / Fold change vs veh, FAM179B / RFU, BCL10 / Fold change vs veh, BCL10 / RFU, UHRF1BP1L / Fold change vs veh, UHRF1BP1L / RFU, BET1 / Fold change vs veh, BET1 / RFU, CNOT2 / Fold change vs veh, CNOT2 / RFU, ZNF268 / Fold change vs veh, ZNF268 / Fold change vs veh, ZNF507 / RFU, DGCR2 / Fold change vs veh, DGCR2 / RFU, WDSUB1 / Fold change vs veh, WDSUB1 / Fold change vs veh, HSP90B1 /// MIR3652 / RFU, ADSS / Fold change vs veh, ADSS / RFU, GK / Fold change vs veh, GK / RFU, ZNF148 / Fold change vs veh, ZNF148 / RFU, TAF9 / Fold change vs veh, TAF9 / RFU, SLC1A5 / Fold change vs veh, SLC1A5 / RFU, SLMO2 / Fold change vs veh, SLMO2 / RFU, ABCC4 / Fold change vs veh, ABCC4 / RFU, LOC101060439 /// RAP1B / Fold change vs veh, LOC101060439 /// RAP1B / RFU, RFX7 / Fold change vs veh, RFX7 / RFU, GTPBP10 / Fold change vs veh, GTPBP10 / RFU, CNEP1R1 / Fold change vs veh, CNEP1R1 / RFU, BIVM-ERCC5 /// ERCC5 / Fold change vs veh, BIVM-ERCC5 /// ERCC5 / RFU, ILF3 / Fold change vs veh, ILF3 / RFU 11762660_at / Fold change /veh 11762660_at / RFU VCAN (11757783_s_at) / Fold change /veh VCAN (11757783_s_at) / RFU DDX43 (11728927_at) / Fold change /veh DDX43 (11728927_at) / RFU KRT8 (11758188_x_at) / Fold change /veh KRT8 (11758188_x_at) / RFU NKD1 (11759106_at) / Fold change /veh NKD1 (11759106_at) / RFU SRD5A1 (11742802_a_at) / Fold change /veh SRD5A1 (11742802_a_at) / RFU TPSAB1 /// TPSB2 (11721975_s_at) / Fold change /veh TPSAB1 /// TPSB2 (11721975_s_at) / RFU GSTM3 (11746129_a_at) / Fold change /veh GSTM3 (11746129_a_at) / RFU IL23R (11737362_x_at) / Fold change /veh IL23R (11737362_x_at) / RFU TMEM51 (11727254_a_at) / Fold change /veh TMEM51 (11727254_a_at) / RFU PIWIL2 (11732686_x_at) / Fold change /veh PIWIL2 (11732686_x_at) / RFU ORM1 (11744905_x_at) / Fold change /veh ORM1 (11744905_x_at) / RFU CCDC152 (11743942_at) / Fold change /veh CCDC152 (11743942_at) / RFU ECM1 (11717891_a_at) / Fold change /veh ECM1 (11717891_a_at) / RFU IL23R (11748794_a_at) / Fold change /veh IL23R (11748794_a_at) / RFU TNFAIP8L3 (11732012_x_at) / Fold change /veh TNFAIP8L3 (11732012_x_at) / RFU MBOAT4 (11741988_at) / Fold change /veh MBOAT4 (11741988_at) / RFU 11764193_at / Fold change /veh 11764193_at / RFU TMEM53 (11763286_at) / Fold change /veh TMEM53 (11763286_at) / RFU MAGEB2 (11727129_at) / Fold change /veh MAGEB2 (11727129_at) / RFU TMEM200A (11744735_a_at) / Fold change /veh TMEM200A (11744735_a_at) / RFU CCDC152 (11751479_a_at) / Fold change /veh CCDC152 (11751479_a_at) / RFU FAM211A (11726209_a_at) / Fold change /veh FAM211A (11726209_a_at) / RFU RGS16 (11746705_a_at) / Fold change /veh RGS16 (11746705_a_at) / RFU VCAN (11755009_s_at) / Fold change /veh VCAN (11755009_s_at) / RFU RHOB (11743442_s_at) / Fold change /veh RHOB (11743442_s_at) / RFU RGS16 (11720943_a_at) / Fold change /veh RGS16 (11720943_a_at) / RFU RGS16 (11720944_at) / Fold change /veh RGS16 (11720944_at) / RFU, VPS4B / Fold change vs veh, VPS4B / RFU, CREB1 / Fold change vs veh, CREB1 / RFU, DNAJC13 / Fold change vs veh, DNAJC13 / RFU, GNAQ / Fold change vs veh, GNAQ / RFU, CDK5R1 / Fold change vs veh, CDK5R1 / RFU, ZRANB3 / Fold change vs veh, ZRANB3 / RFU, CUL4A / Fold change vs veh, CUL4A / RFU, CCNY / Fold change vs veh, CCNY / RFU, UFL1 / Fold change vs veh, UFL1 / RFU, COG3 / Fold change vs veh, COG3 / RFU, DIAPH2 / Fold change vs veh, DIAPH2 / RFU, SKA2 / Fold change vs veh, SKA2 / RFU, AFF3 / Fold change vs veh, AFF3 / RFU, LMF1 / Fold change vs veh, LMF1 / RFU, IPO11 / Fold change vs veh, IPO11 / RFU, DFFB / Fold change vs veh, DFFB / RFU, FOXP1 / Fold change vs veh, FOXP1 / RFU, CARD8 / Fold change vs veh, CARD8 / RFU, STRN3 / Fold change vs veh, STRN3 / RFU, ADK / Fold change vs veh, ADK / RFU, RASSF2 / Fold change vs veh, RASSF2 / RFU, WIPF1 / Fold change vs veh, WIPF1 / RFU, LARP1B / Fold change vs veh, LARP1B / RFU, RASA1 / Fold change vs veh, RASA1 / RFU, RB1 / Fold change vs veh, RB1 / RFU, PPFIA1 / Fold change vs veh, PPFIA1 / RFU, MAT2A / Fold change vs veh, MAT2A / RFU, CCT5 / Fold change vs veh, CCT5 / RFU, WDR92 / Fold change vs veh, WDR92 / RFU, CUX1 / Fold change vs veh, CUX1 / RFU, TTC7A / Fold change vs veh, TTC7A / RFU, TMEM135 / Fold change vs veh, TMEM135 / RFU, DEPTOR / Fold change vs veh, DEPTOR / RFU, CPM / Fold change vs veh, CPM / RFU, DNAJB6 / Fold change vs veh, DNAJB6 / RFU, CACNA2D3 / Fold change vs veh, CACNA2D3 / RFU, DTX4 / Fold change vs veh, DTX4 / RFU, TFCP2 / Fold change vs veh, TFCP2 / RFU, GMCL1 /// GMCL1P1 / Fold change vs veh, GMCL1 /// GMCL1P1 / RFU, AEBP2 / Fold change vs veh, AEBP2 / RFU, SNHG1 /// SNORD22 /// SNORD25 /// SNORD26 /// SNORD27 /// SNORD28 /// SNORD29 /// SNORD31 / Fold change vs veh, SNHG1 /// SNORD22 /// SNORD25 /// SNORD26 /// SNORD27 /// SNORD28 /// SNORD29 /// SNORD31 / Fold change (Aza/veh), C12orf56 (ProbeSet 11735607_a_at) / Fold change (ACY-1035/veh), C12orf56 (ProbeSet 11735607_a_at) / Fold change (Aza/veh), FGFR1OP (ProbeSet 11751329_s_at) / Fold change (ACY-1035/veh), FGFR1OP (ProbeSet 11751329_s_at) / Fold change (Aza/veh), VPS36 (ProbeSet 11739960_a_at) / Fold change (ACY-1035/veh), VPS36 (ProbeSet 11739960_a_at) / RFU SYPL1 (11715823_x_at) / Fold change /veh SYPL1 (11715823_x_at) / RFU IGFBP7 (11715501_s_at) / Fold change /veh IGFBP7 (11715501_s_at) / RFU REEP3 (11722064_at) / Fold change /veh REEP3 (11722064_at) / RFU IGLL1 (11728026_x_at) / Fold change /veh IGLL1 (11728026_x_at): dose or concentration left out as unconfirmed",
  "conditions": "ProbeSet 11731093_s_at; LIST B",
  "data": [
    {"smiles": "Nc1ncn([C@@H]2O[C@H](CO)[C@@H](O)[C@H]2O)c(=O)n1", "note": "[azacitidine]", "values": [
      {"measurement": "Fold change vs veh, BRD1", "value": 0.85}
    ]}
  ]
}
